Converted amounts (≈) assume the structure as drawn. “And” between values parts separate entries of the source, which are not always exact repeats. Equal values may be shown once.
Columns and labels:
[1] = Changes in MIC under different conditions: agar MIC; format: cell-based; conditions: strain not given
[2] = Changes in MIC under different conditions: broth MIC; format: cell-based; conditions: strain not given
MRSA 562 [3] = assay: In vivo activity against MRSA 562 (ED50); set-up: species or system Methicillin Resistant Staphylococcus aureus; conditions: PO; MRSA 562 infection
S. aureus ATCC 25923 = assay: MIC, agar incorporation method; conditions: agar incorporation
MRSA 15187 = assay: MIC, agar incorporation method; conditions: agar incorporation
MRSA 562 [4] = assay: MIC, agar incorporation method; conditions: for MIC: MRSA 562, Table 5; for MIC MRSA 562: agar incorporation, Table 1
MRSA 33 = assay: MIC, agar incorporation method; conditions: agar incorporation
Ent. faecalis ATCC 29212 = assay: MIC, agar incorporation method; conditions: agar incorporation
VRE 6A (Ent. faecium 6A) = assay: MIC, agar incorporation method; conditions: agar incorporation
Strep. pyog. ATCC 19615 = assay: MIC, agar incorporation method; conditions: agar incorporation
Strep. pne. ATCC 6303 = assay: MIC, agar incorporation method; conditions: agar incorporation
S. pneum AB 34 = assay: MIC, agar incorporation method; conditions: agar incorporation
G +ve bacteria = assay: Summary of in vitro activity (MIC); conditions: for MIC50 / MIC90: G +ve, Number 49
S. aureus = assay: Summary of in vitro activity (MIC); conditions: S. aureus; for MIC50 / MIC90: Number 8
E. faecalis = assay: Summary of in vitro activity (MIC); conditions: E. faecalis; for MIC50 / MIC90: Number 7
S. pneumoniae = assay: Summary of in vitro activity (MIC); conditions: S. pneumoniae; for MIC50 / MIC90: Number 19
anaerobic bacteria = assay: Agar dilution method for anaerobic bacteria, summary; format: cell-based; conditions: anaerobes
Clostridium camis = assay: Agar dilution MIC, anaerobes; format: cell-based; conditions: single isolates, anaerobic agar dilution
Clostridium perfringens = assay: microbe, parasite or virus in culture; format: cell-based; conditions: single isolates, anaerobic agar dilution
Clostridium difficile = assay: Agar dilution MIC, anaerobes; format: cell-based; conditions: single isolates, anaerobic agar dilution
Bacteroides fragilis = assay: Agar dilution MIC, anaerobes; format: cell-based; conditions: single isolates, anaerobic agar dilution; listed as Quin/dal
[5] = system: Prevotella (Bacteroides) disiens; assay: Agar dilution MIC, anaerobes; format: cell-based; conditions: single isolates, anaerobic agar dilution; listed as Quin/dal
Prevotella bivia = assay: Agar dilution MIC, anaerobes; format: cell-based; conditions: single isolate, anaerobic agar dilution
Prevotella intermedia = assay: Agar dilution MIC, anaerobes; format: cell-based; conditions: single isolates, anaerobic agar dilution
[6] = system: Prevotella melaninogenica; assay: Agar dilution MIC, anaerobes; format: cell-based; conditions: single isolates, anaerobic agar dilution; listed as Quin/dal
[7] = system: Porphyromonas asaccharolytica; assay: Agar dilution MIC, anaerobes; format: cell-based; conditions: single isolate, anaerobic agar dilution
Fusobacterium montiferum = assay: Agar dilution MIC, anaerobes; format: cell-based; conditions: single isolates, anaerobic agar dilution; listed as Quin/dal
Porphyromonas gingivalis = assay: Agar dilution MIC, anaerobes; format: cell-based; conditions: single isolate, anaerobic agar dilution
Fusobacterium varium = assay: Agar dilution MIC, anaerobes; format: cell-based; conditions: single isolates, anaerobic agar dilution
P. acnes = assay: Agar dilution MIC, anaerobes; format: cell-based; conditions: single isolates, anaerobic agar dilution
[8] = system: Peptostreptococcus magnum; assay: Agar dilution MIC, anaerobes; format: cell-based; conditions: single isolates, anaerobic agar dilution
[9] = system: Peptostreptococcus micros; assay: Agar dilution MIC, anaerobes; format: cell-based; conditions: single isolates, anaerobic agar dilution; listed as Quin/dal
[10] = system: Peptostreptococcus tetradius; assay: Agar dilution MIC, anaerobes; format: cell-based; conditions: single isolates, anaerobic agar dilution
[11] = system: Peptostreptococcus prevotii; assay: Agar dilution MIC, anaerobes; format: cell-based; conditions: single isolates, anaerobic agar dilution
Eubacterium leutum = assay: Agar dilution MIC, anaerobes; format: cell-based; conditions: single isolates, anaerobic agar dilution
Fusobacterium necrogenes = assay: Agar dilution MIC, anaerobes; format: cell-based; conditions: single isolate, anaerobic agar dilution
MRSE 879 = assay: Broth MIC, MRSE 879; format: cell-based; conditions: MRSE 879
[12] = system: MRSE 879 adherent bacteria; assay: Sintered glass adherent bacteria model; conditions: MRSE 879, sintered glass adherent bacteria model

For `CC(=O)NC[C@H]1CN(c2ccc(N3CCC(N(C)C(=O)c4ccc([N+](=O)[O-])o4)CC3)c(F)c2)C(=O)O1` [Compound No. 44], the “Agar MIC” value [1] was under 0.1 µg/mL, the “Broth MIC +50% Sheep serum” value [2] was 0.25 µg/mL and the “Broth MIC Normal MH broth” value [2] was under 0.1 µg/mL. The “ED50 (mg/kg body weight) PO” value (MRSA 562 [3]) was over 25 mg/kg body weight, the “MIC S. aureus 25923” value (S. aureus ATCC 25923) was 0.25 µg/mL (≈ 0.497 µM) and the “MIC MRSA 15187” value (MRSA 15187) was under 0.1 µg/mL. For the same molecule, the “MIC” value (MRSA 562 [4]) was under 0.1 µg/mL, the “MIC MRSA 562” value (MRSA 562 [4]) was under 0.1 µg/mL and the “MIC MRSA 33” value (MRSA 33) was under 0.1 µg/mL. The “MIC E. faecalis 29212” value (Ent. faecalis ATCC 29212) was 0.25 µg/mL (≈ 0.497 µM), the “MIC VRE 6A” value (VRE 6A (Ent. faecium 6A)) was under 0.1 µg/mL and the “MIC S. pyogenes 19615” value (Strep. pyog. ATCC 19615) was 0.5 µg/mL (≈ 0.993 µM). The “MIC S. pneum 6303” value (Strep. pne. ATCC 6303) was 2 µg/mL (≈ 3.97 µM), the “MIC S. pneum AB 34” value (S. pneum AB 34) was 2 µg/mL (≈ 3.97 µM) and the MIC50 (G +ve bacteria) was 0.5 µg/mL (≈ 0.993 µM). The MIC90 (G +ve bacteria) was 2 µg/mL (≈ 3.97 µM), the “Geometric Mean of in vitro activity (MIC)” value (“Geometric Mean … (MIC)” for short) (G +ve bacteria; Gram + ve) was 0.31 µg/mL and the “Geometric Mean … (MIC)” value (S. aureus) was 0.11 µg/mL. The MIC50 (S. aureus) was 0.064 µg/mL (≈ 0.127 µM), the MIC90 (S. aureus) was 0.25 µg/mL (≈ 0.497 µM) and the “Geometric Mean … (MIC)” value (E. faecalis) was 0.11 µg/mL. The MIC50 (E. faecalis) was 0.064 µg/mL (≈ 0.127 µM), the MIC90 (E. faecalis) was 0.25 µg/mL (≈ 0.497 µM) and the “Geometric Mean … (MIC)” value (S. pneumoniae) was 0.96 µg/mL. It also gave an MIC50 (S. pneumoniae) of 1 µg/mL (≈ 1.99 µM) and an MIC90 (S. pneumoniae) of 2 µg/mL (≈ 3.97 µM).

With `CC(=O)NC[C@H]1CN(c2ccc(N3CCN(C(=O)c4ccc([N+](=O)[O-])s4)CC3)c(F)c2)C(=O)O1.Cl` [Compound No. 29, (S)-N[[3-[3-Fluoro-4-[N-1[4-(5-nitro-2-thienoyl)]piperazinyl]phenyl]2-oxo-5-oxazolidinyl]methyl]acetamide hydrochloride] the “Agar MIC” value [1] was under 0.1 µg/mL, the “Broth MIC +50% Sheep serum” value [2] was 0.5 µg/mL and the “Broth MIC Normal MH broth” value [2] was 0.25 µg/mL. The “ED50 (mg/kg body weight) PO” value (MRSA 562 [3]) was over 25 mg/kg body weight, the “MIC S. aureus 25923” value (S. aureus ATCC 25923) was 0.25 µg/mL and the “MIC MRSA 15187” value (MRSA 15187) was under 0.1 µg/mL. For the same molecule, the “MIC” value (MRSA 562 [4]) was under 0.1 µg/mL, the “MIC MRSA 562” value (MRSA 562 [4]) was under 0.1 µg/mL and the “MIC MRSA 33” value (MRSA 33) was under 0.1 µg/mL. The “MIC E. faecalis 29212” value (Ent. faecalis ATCC 29212) was 1 µg/mL, the “MIC VRE 6A” value (VRE 6A (Ent. faecium 6A)) was 0.5 µg/mL and the “MIC S. pyogenes 19615” value (Strep. pyog. ATCC 19615) was 1 µg/mL. For the same molecule, the “MIC S. pneum 6303” value (Strep. pne. ATCC 6303) was 1 µg/mL, the “MIC S. pneum AB 34” value (S. pneum AB 34) was 1 µg/mL and the MIC50 (G +ve bacteria) was 1 µg/mL. For the same molecule, the MIC90 (G +ve bacteria) was 1 µg/mL, the MIC50 (S. aureus) was 0.064 µg/mL and the MIC90 (S. aureus) was 0.25 µg/mL. It also gave an MIC50 (E. faecalis) of 1 µg/mL, an MIC90 (E. faecalis) of 1 µg/mL and an MIC50 (S. pneumoniae) of 1 µg/mL. It also gave an MIC90 (S. pneumoniae) of 1 µg/mL.

For Synercid, the “Geometric Mean” value (anaerobic bacteria) was 1.614 µg/mL, the “MIC Range” value (anaerobic bacteria) was 0.062 to 16 µg/mL and the MIC50 (anaerobic bacteria; Wilkins Chalgren agar, 48 hour) was 1 µg/mL. For the same molecule, the MIC90 (anaerobic bacteria; Wilkins Chalgren agar, 48 hour) was 16 µg/mL, the “MIC Clostridium camis” value (Clostridium camis) was 0.5 µg/mL and the “MIC Clostridium perfringens” value (Clostridium perfringens) was 0.5 µg/mL. For the same molecule, the “MIC Clostridium difficile” value (Clostridium difficile) was 0.5 µg/mL, the “MIC Bacteroides fragilis” value (Bacteroides fragilis) was 8 µg/mL and >8 µg/mL and the “MIC Prevotella (Bacteroides) disiens” value [5] was >8 µg/mL and 8 µg/mL. For the same molecule, the “MIC Prevotella bivia” value (Prevotella bivia) was 2 µg/mL, the “MIC Prevotella intermedia” value (Prevotella intermedia) was 0.25 µg/mL and the “MIC Prevotella melaninogenica” value [6] was 1 µg/mL and 2 µg/mL. The “MIC Porphyromonas asaccharolytica” value [7] was “<=.125 μg/ml”, the “MIC Fusobacterium montiferum” value (Fusobacterium montiferum) was 8 µg/mL and >8 µg/mL and 4 µg/mL and the “MIC Porphyromonas gingivalis” value (Porphyromonas gingivalis) was 0.25 µg/mL. For the same molecule, the “MIC Fusobacterium varium” value (Fusobacterium varium) was over 8 µg/mL, the “MIC P. acnes” value (P. acnes) was “<=.125 μg/ml” and the “MIC Peptostreptococcus magnum” value [8] was 0.25 µg/mL. The “MIC Peptostreptococcus micros” value [9] was 0.5 µg/mL and 1 µg/mL, the “MIC Peptostreptococcus tetradius” value [10] was 1 µg/mL and the “MIC Peptostreptococcus prevotii” value [11] was 0.25 µg/mL. The “MIC Eubacterium leutum” value (Eubacterium leutum) was 0.25 µg/mL, the “MIC Fusobacterium necrogenes” value (Fusobacterium necrogenes) was 0.25 µg/mL and the “broth MIC” value (MRSE 879) was 0.5 µg/mL. For the same molecule, the “concentration which would kill adherent bacteria” value [12] was 2 µg/mL.

With `CC(=O)NC[C@H]1CN(c2ccc(N3CCN(C(=O)c4ccoc4)CC3)c(F)c2)C(=O)O1` [Compound No. 08, (S)-N[[3-[3-Fluoro-4-[N-1[4-(3-furoyl)]piperazinyl]phenyl]2-oxo-5-oxazolidinyl]-methyl]acetamide] the “Agar MIC” value [1] was 1 µg/mL, the “Broth MIC +50% Sheep serum” value [2] was 4 µg/mL and the “Broth MIC Normal MH broth” value [2] was 2 µg/mL. The “ED50 (mg/kg body weight) PO” value (MRSA 562 [3]) was 25 mg/kg body weight, the “MIC S. aureus 25923” value (S. aureus ATCC 25923) was 2 µg/mL (≈ 4.65 µM) and the “MIC MRSA 15187” value (MRSA 15187) was 1 µg/mL (≈ 2.32 µM). For the same molecule, the “MIC” value (MRSA 562 [4]) was 1 µg/mL (≈ 2.32 µM), the “MIC MRSA 562” value (MRSA 562 [4]) was 1 µg/mL (≈ 2.32 µM) and the “MIC MRSA 33” value (MRSA 33) was 1 µg/mL (≈ 2.32 µM). The “MIC E. faecalis 29212” value (Ent. faecalis ATCC 29212) was 1 µg/mL (≈ 2.32 µM), the “MIC VRE 6A” value (VRE 6A (Ent. faecium 6A)) was 1 µg/mL (≈ 2.32 µM) and the “MIC S. pyogenes 19615” value (Strep. pyog. ATCC 19615) was 1 µg/mL (≈ 2.32 µM). For the same molecule, the “MIC S. pneum 6303” value (Strep. pne. ATCC 6303) was 2 µg/mL (≈ 4.65 µM) and the “MIC S. pneum AB 34” value (S. pneum AB 34) was 4 µg/mL (≈ 9.29 µM).
